This is an account of results in ChEMBL document CHEMBL1137310, “Stereoselective chemoenzymatic synthesis of the four stereoisomers of l-2-(2-carboxycyclobutyl)glycine and pharmacological characterization at human excitatory amino acid transporter subtypes 1, 2, and 3” (J Med Chem, 2006).

Type in all cases: functional, cell-based
The target in experiment [1] is Excitatory amino acid transporter 2 (Homo sapiens, UniProt P43004). The experiment in a line: Inhibition of human EAAT2 expressed in HEK293 cells by FLIPR membrane potential assay.
Sequence of Excitatory amino acid transporter 2 (P43004 whole entry): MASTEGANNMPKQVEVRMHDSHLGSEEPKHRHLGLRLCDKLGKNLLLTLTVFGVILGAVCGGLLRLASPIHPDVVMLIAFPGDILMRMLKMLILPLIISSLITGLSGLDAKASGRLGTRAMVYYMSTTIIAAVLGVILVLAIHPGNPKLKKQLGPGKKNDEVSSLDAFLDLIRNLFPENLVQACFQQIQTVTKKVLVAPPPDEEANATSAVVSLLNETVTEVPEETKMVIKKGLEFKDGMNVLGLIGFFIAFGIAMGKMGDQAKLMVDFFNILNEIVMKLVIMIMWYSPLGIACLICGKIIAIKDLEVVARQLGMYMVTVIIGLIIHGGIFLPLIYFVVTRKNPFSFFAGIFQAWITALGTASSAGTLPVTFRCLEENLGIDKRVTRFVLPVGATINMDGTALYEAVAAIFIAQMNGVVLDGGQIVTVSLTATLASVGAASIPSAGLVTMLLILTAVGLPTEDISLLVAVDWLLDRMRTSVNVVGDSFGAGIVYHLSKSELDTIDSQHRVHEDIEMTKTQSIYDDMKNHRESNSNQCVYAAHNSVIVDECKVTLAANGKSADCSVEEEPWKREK
Experiment [2] concerns the target T1, Excitatory amino acid transporter 3 (Homo sapiens, UniProt P43005).
T1 sequence (P43005 whole entry): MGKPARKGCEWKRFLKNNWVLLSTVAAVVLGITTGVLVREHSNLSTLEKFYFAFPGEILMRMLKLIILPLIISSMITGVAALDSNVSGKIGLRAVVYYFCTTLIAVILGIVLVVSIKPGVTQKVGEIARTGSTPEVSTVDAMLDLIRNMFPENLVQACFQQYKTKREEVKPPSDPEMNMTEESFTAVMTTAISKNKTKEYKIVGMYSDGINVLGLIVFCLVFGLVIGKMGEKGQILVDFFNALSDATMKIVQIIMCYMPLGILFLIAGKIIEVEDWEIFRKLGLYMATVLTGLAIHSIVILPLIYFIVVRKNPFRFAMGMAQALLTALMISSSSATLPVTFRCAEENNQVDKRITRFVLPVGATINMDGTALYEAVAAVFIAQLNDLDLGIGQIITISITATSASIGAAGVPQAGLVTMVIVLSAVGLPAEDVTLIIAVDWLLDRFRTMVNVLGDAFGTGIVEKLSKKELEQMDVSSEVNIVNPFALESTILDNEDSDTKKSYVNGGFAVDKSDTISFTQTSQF
The experiment in a line: Inhibition of human EAAT3 expressed in HEK293 cells by FLIPR membrane potential assay.

Experiment [3] concerns the target Excitatory amino acid transporter 1 (Homo sapiens, UniProt P43003). As to the kind of experiment: Inhibition of human EAAT1 expressed in HEK293 cells by FLIPR membrane potential assay.

For orientation: Ki means a measure of affinity in units of concentration, obtained from inhibition or displacement.

Sequence of Excitatory amino acid transporter 1 (P43003 whole entry): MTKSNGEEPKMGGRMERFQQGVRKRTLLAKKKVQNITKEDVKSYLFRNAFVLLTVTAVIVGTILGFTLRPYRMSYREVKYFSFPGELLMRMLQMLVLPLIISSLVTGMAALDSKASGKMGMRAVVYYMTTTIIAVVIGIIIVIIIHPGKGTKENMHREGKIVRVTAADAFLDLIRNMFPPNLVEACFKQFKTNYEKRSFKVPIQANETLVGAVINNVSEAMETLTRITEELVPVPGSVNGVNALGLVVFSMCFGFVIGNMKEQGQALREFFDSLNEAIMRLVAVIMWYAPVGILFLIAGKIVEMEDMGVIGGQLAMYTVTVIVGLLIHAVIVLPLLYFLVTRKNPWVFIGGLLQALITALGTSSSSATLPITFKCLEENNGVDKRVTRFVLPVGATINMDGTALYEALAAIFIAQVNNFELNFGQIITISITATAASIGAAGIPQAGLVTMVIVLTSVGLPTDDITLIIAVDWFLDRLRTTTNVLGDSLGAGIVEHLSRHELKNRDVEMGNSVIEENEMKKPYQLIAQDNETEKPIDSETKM

As to `N[C@H](C(=O)O)[C@@H]1CC[C@H]1C(=O)O`, the values for the Ki in experiment [1] and in experiment [2] were 22 µM and 49 µM, respectively.
In the case of `N[C@H](C(=O)O)[C@@H]1CC[C@@H]1C(=O)O`, the Ki turned out to be 200 µM in experiment [3], 6.6 µM in experiment [1] and 10 µM in experiment [2].
